Laboratory results published in patent US20250129123A1, “BIOMIMETIC PEPTIDES AND THEIR USE IN BONE REGENERATION” (SILK BIOMATERIALS S.R.L., priority 2021, published 2025).
Ends that are not written are not given here.

Key:
[1] = Mineralization test (von Kossa staining) of fibroin foams in complete medium in the absence of cells; conditions: absence of MSC (NO MSC), 7 days
Method: (§1) Human mesenchymal stem cells (MSCs) were purchased from Lonza and cultured in Dulbecco's Modified Eagle's Medium (DMEM), supplemented with 10% MSC Stimulatory Supplement, 100 U/mL penicillin-streptomycin and non-essential amino acids at 37° C. in a fully humidified atmosphere at 5% CO2. The fibroin foams were placed in a 96-well plate, immersed in 70% ethanol for 30 minutes, washed in phosphate buffered saline (PBS) three times, immersed in 100 U/mL penicillin-streptomycin overnight and washed three times in PBS. MSC (10^4/50 μL) were seeded by pipetting onto different points of the foam to improve the distribution of the cells within the foam and allowed to adhere for 30 minutes. Subsequently, 150 μL of complete medium were added to each well. As a negative control, the fibroin foams were kept in the complete cell-free medium. The medium was changed every two days.
(§2) The foams were washed twice with PBS (not containing magnesium/calcium ions) before cell lysis and protein extraction. Cell lysis was performed using the HEPES buffer (50 mM HEPES, pH 7.4, 150 mM NaCl, 10% (v/v) glycerol, 1% (v/v) Triton X-100, 1.5 mM MgCl2, 1 mM EGTA) containing 100 mM NaF, 1 mM NaVO4, 1 μg/mL leupeptin, and 1 μg/mL aprotinin. After 30 minutes on ice, the extracts were centrifuged for 10 minutes at 13,000 g as cell lysate and stored at −20° C. The remaining deposited matrix was washed twice with PBS (not containing magnesium/calcium ions). To fix the matrix on the fibroin foams […] was added in ultrapure water at room temperature for 10 minutes and then two washes with ultrapure water were performed. […]
(§3) The human mesenchymal stem cells (MSCs) were cultured for 7 days in the fibroin foams functionalized with the biomimetic peptides, using a non-functionalized fibroin foam as a reference. […] The extent of calcium deposit was studied by means of von Kossa staining and quantified by image analysis with ImageJ software. […] The threshold was adjusted manually, and the percentage area covered by the signal above the threshold was measured.

[2] = system: human mesenchymal stem cells (MSCs); assay: Mineralization test (von Kossa staining) of fibroin foams incubated with human mesenchymal stem cells; assay type: cell-based; conditions: presence of MSC (+MSC), complete medium, 7 days, decellularized foams
Method: as §1, §2, §3

[3] = SEM/EDX chemical characterization of fibroin foams incubated in SBF; conditions: fibroin foam functionalized with peptide, 14 days, aggregates "Object 10437"
Method: […]
The fibroin foam samples were analysed in SEM/EDX in order to morphologically and compositionally identify the mineral formations constituted by calcium and phosphate salts.

For GPYVAHGGYSGYEY, the “amount of deposited calcium (percentage area covered by von Kossa staining) versus non-functionalized foam” value [1] was “always higher” and the “amount of deposited calcium (percentage area covered by von Kossa staining) versus non-functionalized foam” value [2] was “always higher”.

With SGYEYAWSSESDF the “amount of deposited calcium (percentage area covered by von Kossa staining) versus non-functionalized foam” value [1] was “always higher” and the “amount of deposited calcium (percentage area covered by von Kossa staining) versus non-functionalized foam” value [2] was “always higher”.

In the case of VNGGYSGYEYAW, the “chemical composition of the crystalline aggregates (SEM/EDX)” value [3] is reported as “intense signals of calcium (Ca) and phosphorus (P)”, the “amount of deposited calcium (percentage area covered by von Kossa staining) versus non-functionalized foam” value [1] is reported as “always higher” and the “amount of deposited calcium (percentage area covered by von Kossa staining) versus non-functionalized foam” value [2] is reported as “always higher”.
